According to the supplement of paper PMC4862054:

Experiments:
BT-474 = experiment: normalised response (% of control), CellTiter-Glo; higher = more viable cells (100 = DMSO, 0 = benzethonium chloride kill control); details: incubation time: 72 h
Procedure, shortened: (§1)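 Two readouts were taken after 72 h: CellTox Green fluorescence (485/520 nm) first, then CellTiter-Glo luminescence after 10 min at room temperature. Breast cancer cell lines had been seeded as 20 µl suspension into 384-well plates holding compound at 5 concentrations in 10-fold steps across a compound-specific 10,000-fold range. Each value is a normalised signal at a single concentration, with plates scaled to 0.1 % DMSO (100) and a positive kill control (0).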

BT-549 = experiment: as above; details: incubation time: 72 h
Procedure, shortened: as §1

CAL-120 = experiment: as above; details: incubation time: 72 h
Procedure, shortened: as §1

CAL-148 = experiment: as above; details: incubation time: 72 h
Procedure, shortened: as §1

CAL-51 = experiment: as above; details: incubation time: 72 h
Procedure, shortened: as §1

CAL-85-1 = experiment: as above; details: incubation time: 72 h
Procedure, shortened: as §1

DU-4475 = experiment: as above; details: incubation time: 72 h
Procedure, shortened: as §1

HCC1599 = experiment: as above; details: incubation time: 72 h
Procedure, shortened: as §1

HCC1937 = experiment: as above; details: incubation time: 72 h
Procedure, shortened: as §1

HDQ-P1 = experiment: as above; details: incubation time: 72 h
Procedure, shortened: as §1

Hs578T = experiment: as above; details: incubation time: 72 h
Procedure, shortened: as §1

MCF-10A = experiment: as above; details: incubation time: 72 h
Procedure, shortened: as §1

MDA-MB-231 = experiment: as above; details: incubation time: 72 h
Procedure, shortened: as §1

MDA-MB-436 = experiment: as above; details: incubation time: 72 h
Procedure, shortened: as §1

MDA-MB-453 = experiment: as above; details: incubation time: 72 h
Procedure, shortened: as §1

MDA-MB-468 [1] = experiment: as above; details: incubation time: 72 h
Procedure, shortened: as §1

MFM-223 = experiment: as above; details: incubation time: 72 h
Procedure, shortened: as §1

SK-BR-3 = experiment: as above; details: incubation time: 72 h
Procedure, shortened: as §1

MDA-MB-468 [2] = details: 72 h
Description: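 Drug sensitivity and resistance testing (DSRT) of breast cancer cell lines in 384-well plates, 5 concentrations in 10-fold dilutions over a compound-specific 10,000-fold range. After 72 h, cytotoxicity was read by CellTox Green fluorescence and viability by CellTiter-Glo luminescence (multiplexed), normalised to DMSO and benzethonium chloride controls. EC50 is the inflection point of the fitted dose-response curve (bottom asymptote free, so it can be relative for partial curves) and is censored at the highest tested concentration. Rows with DSS 0 (no meaningful response) were excluded.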

| SMILES | normalised response (BT-474) | normalised response (BT-549) | normalised response (CAL-120) | normalised response (CAL-148) | normalised response (CAL-51) | normalised response (CAL-85-1) | normalised response (DU-4475) | normalised response (HCC1599) | normalised response (HCC1937) | normalised response (HDQ-P1) | normalised response (Hs578T) | normalised response (MCF-10A) | normalised response (MDA-MB-231) | normalised response (MDA-MB-436) | normalised response (MDA-MB-453) | normalised response (MDA-MB-468 [1]) | normalised response (MFM-223) | normalised response (SK-BR-3) | EC50, CellTox Green (MDA-MB-468 [2]) |
| --- | --- | --- | --- | --- | --- | --- | --- | --- | --- | --- | --- | --- | --- | --- | --- | --- | --- | --- | --- |
| Cc1ccc(NC(=O)c2ccc(CN3CCN(C)CC3)cc2)cc1Nc1nc(-c2cccnc2)cs1 [Masitinib] (1000 nM) | 104% | 92.9% | 95.5% | 103% | 80.5% | 111% | 103% | 106% | 101% | 98.8% | 102% | 105% | 105% | 105% | 89.7% | 89.9% | 103% | 105% |  |
| CC(C)C[C@@H](C(=O)N[C@H](C(=O)OC1CCCC1)c1ccccc1)[C@H](O)C(=O)NO [Tosedostat] (1000 nM) | 40.6% | 55.9% | 43.4% | 72.9% | 91% | 48.2% | 88.4% | 96.6% | 67.4% | 74.1% | 84.6% | 87.3% | 59.7% | 73.6% | 48.7% | 28.7% | 70.5% | 76.2% |  |
| CCn1c(-c2nonc2N)nc2cnc(Oc3cccc(NC(=O)c4ccc(OCCN5CCOCC5)cc4)c3)cc21 |  |  |  |  |  |  |  |  |  |  |  |  |  |  |  |  |  |  | > 10 µM |
| O=C(Nc1cccnc1)N1CCC(Cc2cccc(Oc3ccc(C(F)(F)F)cn3)c2)CC1 [PF-3845] (1000 nM) | 99.2% | 98.3% | 99% | 99.4% | 98.3% | 95% | 98.3% | 104% | 99% | 98.1% | 104% | 111% | 106% | 104% | 100% | 95.1% | 109% | 101% |  |
| O=P1(N(CCCl)CCCl)NCCCO1 (stereo unspecified) [Cyclophosphamide] (4000 nM) | 93.1% | 103% | 94.4% | 100% | 99.4% | 92.1% | 104% | 109% | 99% | 98% | 111% | 103% | 99.5% | 97.8% | 111% | 92.9% | 106% | 107% |  |
| c1ccc2c(CCNc3ccc(Nc4ccncc4)cc3)c[nH]c2c1 [Serdemetan] (1000 nM) | 76.4% | 84.2% | 93.7% | 71.1% | 24.4% | 125% | 90.3% | 114% | 88.5% | 90% | 104% | 86.2% | 82.4% | 89.5% | 110% | 77.8% | 97% | 79.6% |  |
| O=C(Nc1ccncc1)C(=O)c1cn(Cc2ccc(Cl)cc2)c2ccccc12 [Indibulin] (1000 nM) | 70.8% | 42.8% | 66.9% | 93.2% | 25.5% | 38.3% | 91.8% | 63.1% | 73.9% | 80.1% | 57.8% | 89.8% | 78% | 42.2% | 67.8% | 37.7% | 60% | 33.2% |  |
| CN(C)CCOc1ccc(/C(=C(/CCCl)c2ccccc2)c2ccccc2)cc1 [Toremifene] (1000 nM) | 98.7% | 104% | 98.5% | 99.2% | 108% | 99.2% | 98.3% | 102% | 96.7% | 96.6% | 107% | 92.3% | 92.6% | 104% | 106% | 97.6% | 101% | 106% |  |
| N#Cc1ccc(COC[C@H]2O[C@@H](n3c(NCc4ccc(Cl)c(Cl)c4)nc4c(N)ncnc43)[C@H](O)[C@@H]2O)cc1 (1000 nM) | 81.8% | 89.9% | 101% | 98.5% | 110% | 107% | 86% | 116% | 86.9% | 98.7% | 86.9% | 96.6% | 89.8% | 109% | 98.4% | 93.7% | 98.9% | 95.3% |  |
| COCC[n+]1c2c(n(Cc3cnccn3)c1C)C(=O)c1ccccc1C2=O [YM155] (1000 nM) | 0.29% | -0.05% | 3.05% | -0.23% | -0.05% | -0.48% | 1.45% | -0.01% | 0.41% | -0.17% | 25.6% | -0.7% | -0.22% | -0.32% | 9.91% | -0.57% | 10.7% | -0.16% |  |
| Cc1[nH]c2ccccc2c1CCNCc1ccc(/C=C/C(=O)NO)cc1 [Panobinostat] (100 nM) | 13.4% | 46.2% | 41.5% | 3.76% | 24.6% | 25.9% | 4.91% | 24.2% | 63.1% | 62.3% | 27.4% | 49.1% | 10.2% | 55% | 3.15% | 28.2% | 35.2% | 1.76% |  |
